Measured values as given in ChEMBL document CHEMBL1201862, “PubChem BioAssay data set” (2004).
The source made the active and inactive calls.

What was measured:
[1] = target: T1, Corticotropin-releasing factor receptor 2/Corticotropin-releasing factor-binding protein (Homo sapiens, UniProt P24387+Q13324); test: Dose Response confirmation of uHTS hits for small molecule antagonists of the CRF-binding protein and CRF-R2 receptor complex.; type: functional; settings: read-out: IC50_Mean
T1 sequence (Q13324 whole entry): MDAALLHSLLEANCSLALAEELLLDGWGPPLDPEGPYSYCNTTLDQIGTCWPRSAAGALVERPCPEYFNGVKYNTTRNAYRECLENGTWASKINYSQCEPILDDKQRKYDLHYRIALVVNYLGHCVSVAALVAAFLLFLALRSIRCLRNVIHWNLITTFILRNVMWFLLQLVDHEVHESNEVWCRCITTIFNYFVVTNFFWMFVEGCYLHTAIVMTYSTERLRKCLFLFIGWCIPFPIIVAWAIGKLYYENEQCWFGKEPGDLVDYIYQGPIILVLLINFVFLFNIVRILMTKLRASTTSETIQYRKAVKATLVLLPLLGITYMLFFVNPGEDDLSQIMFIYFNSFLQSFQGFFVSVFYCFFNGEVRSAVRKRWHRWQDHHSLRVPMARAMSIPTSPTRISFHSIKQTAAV
T1 sequence (P24387 whole entry): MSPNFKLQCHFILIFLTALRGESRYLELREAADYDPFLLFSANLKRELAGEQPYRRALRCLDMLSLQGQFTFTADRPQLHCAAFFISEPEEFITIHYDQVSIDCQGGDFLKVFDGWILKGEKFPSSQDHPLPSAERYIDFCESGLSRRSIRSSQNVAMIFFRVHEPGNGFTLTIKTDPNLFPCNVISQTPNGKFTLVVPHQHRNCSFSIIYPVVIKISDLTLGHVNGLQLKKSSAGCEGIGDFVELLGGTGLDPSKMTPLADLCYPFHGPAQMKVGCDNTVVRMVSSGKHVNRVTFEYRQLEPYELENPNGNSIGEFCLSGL

[2] = target: T1, Corticotropin-releasing factor receptor 2/Corticotropin-releasing factor-binding protein; test: activators of CRF receptor 2 with binding protein – uHTS hits, confirmation (AID 602473); type: functional; settings: read-out: EC50_Mean
Large T antigen = Large T antigen (Simian virus 40, UniProt P03070); type: functional, Betapolyomavirus macacae;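 note: Confirmatory-stage PubChem screen for compounds that inhibit SV40 T antigen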
Prothrombin = Prothrombin (Homo sapiens, UniProt P00734); test: Thrombin 1536 HTS Dose Response Confirmation. [Related pubchem assays: 1046 (Thrombin 1536 HTS; hits were confirmed in this assay)]; type: functional
SUMO-activating enzyme [3] = target: T2, SUMO-activating enzyme (Homo sapiens, UniProt Q9UBT2); test: SUMOylation inhibitor hit validation, confirmation, SUMOylation inhibitor project, biochemical, AlphaScreen (AID 2018); type: functional
[4] = target: T3, Voltage-gated N-type calcium channel alpha-1B subunit/Amyloid beta A4 precursor protein-binding family A member 1 (Homo sapiens, UniProt Q00975+Q02410); type: protein assay
SUMO-activating enzyme [5] = target: T2, SUMO-activating enzyme; test: inhibitors of in vitro SUMOylation cascade, primary screen, biochemical, HTRF, uHTS (AID 2006); type: protein-complex assay
[6] = target: T3, Voltage-gated N-type calcium channel alpha-1B subunit/Amyloid beta A4 precursor protein-binding family A member 1; type: protein assay; remark: listed apart in the source
Nonstructural protein 1 = Nonstructural protein 1 (Influenza A virus, UniProt Q194T2); type: functional, Influenza A virus (A/California/07/2009(H1N1))
P388/ADR = test: cells; type: functional; settings: Mus musculus
SN12K1 = test: cells; type: functional; settings: Homo sapiens
P388 = test: cells; type: functional; settings: Mus musculus
[7] = target: DNA dC->dU-editing enzyme APOBEC-3G (Homo sapiens, UniProt Q9HC16); test: Dose Response confirmation of small molecule APOBEC3G DNA Deaminase Inhibitors via a fluorescence-based single-stranded DNA deaminase assay. [Related pubchem assays (depositor defined):AID493012, AID493028]; type: functional
HEK293 = test: inhibitors of LMP1-driven NF-kB reporter, dose response, cell-based, HEK293, luciferase, cherry-pick (AID 588343); type: functional; settings: Homo sapiens
INS1 = test: beta cell apoptosis inhibitors, cytokine rescue, dose response, luminescence, retest (AID 449756); type: functional, cell-based; settings: Rattus norvegicus;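 note: cell death triggered by IL-1 beta plus TNF-alpha plus IFN-gamma mixture; protective hits raise ATP signal compared with cytokine alone wells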
[8] = P. falciparum 3D7-ScDHODH growth inhibitors, dose response, SYBR Green, dry powder samples (AID 1159570); type: functional, cell-based;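 note: parasite growth measured after 72 hours of compound exposure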
[9] = P. falciparum Dd2 growth inhibitors, dose response, SYBR Green, cherry-picked samples (AID 1159567); type: functional, cell-based
[10] = P. falciparum Dd2 growth inhibitors, dose response, SYBR Green, dry powder samples (AID 1159566); type: functional, cell-based;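 note: potency for growth inhibition with lower SYBR green DNA signal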
[11] = P. falciparum ATP4 D1247Y mutant growth inhibitors, dose response, NITD609-resistant line, SYBR Green, dry powder (AID 1159571); type: functional, cell-based;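 note: parasites synchronized at ring stage by sorbitol before testing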

Chain of Nonstructural protein 1 (Q194T2 whole entry): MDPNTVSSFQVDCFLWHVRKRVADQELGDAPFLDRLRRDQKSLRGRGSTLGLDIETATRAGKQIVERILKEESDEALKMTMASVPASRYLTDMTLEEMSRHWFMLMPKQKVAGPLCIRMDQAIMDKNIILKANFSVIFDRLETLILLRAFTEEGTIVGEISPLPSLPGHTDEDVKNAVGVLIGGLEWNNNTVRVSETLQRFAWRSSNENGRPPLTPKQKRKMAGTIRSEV
T3 sequence (Q00975 whole entry): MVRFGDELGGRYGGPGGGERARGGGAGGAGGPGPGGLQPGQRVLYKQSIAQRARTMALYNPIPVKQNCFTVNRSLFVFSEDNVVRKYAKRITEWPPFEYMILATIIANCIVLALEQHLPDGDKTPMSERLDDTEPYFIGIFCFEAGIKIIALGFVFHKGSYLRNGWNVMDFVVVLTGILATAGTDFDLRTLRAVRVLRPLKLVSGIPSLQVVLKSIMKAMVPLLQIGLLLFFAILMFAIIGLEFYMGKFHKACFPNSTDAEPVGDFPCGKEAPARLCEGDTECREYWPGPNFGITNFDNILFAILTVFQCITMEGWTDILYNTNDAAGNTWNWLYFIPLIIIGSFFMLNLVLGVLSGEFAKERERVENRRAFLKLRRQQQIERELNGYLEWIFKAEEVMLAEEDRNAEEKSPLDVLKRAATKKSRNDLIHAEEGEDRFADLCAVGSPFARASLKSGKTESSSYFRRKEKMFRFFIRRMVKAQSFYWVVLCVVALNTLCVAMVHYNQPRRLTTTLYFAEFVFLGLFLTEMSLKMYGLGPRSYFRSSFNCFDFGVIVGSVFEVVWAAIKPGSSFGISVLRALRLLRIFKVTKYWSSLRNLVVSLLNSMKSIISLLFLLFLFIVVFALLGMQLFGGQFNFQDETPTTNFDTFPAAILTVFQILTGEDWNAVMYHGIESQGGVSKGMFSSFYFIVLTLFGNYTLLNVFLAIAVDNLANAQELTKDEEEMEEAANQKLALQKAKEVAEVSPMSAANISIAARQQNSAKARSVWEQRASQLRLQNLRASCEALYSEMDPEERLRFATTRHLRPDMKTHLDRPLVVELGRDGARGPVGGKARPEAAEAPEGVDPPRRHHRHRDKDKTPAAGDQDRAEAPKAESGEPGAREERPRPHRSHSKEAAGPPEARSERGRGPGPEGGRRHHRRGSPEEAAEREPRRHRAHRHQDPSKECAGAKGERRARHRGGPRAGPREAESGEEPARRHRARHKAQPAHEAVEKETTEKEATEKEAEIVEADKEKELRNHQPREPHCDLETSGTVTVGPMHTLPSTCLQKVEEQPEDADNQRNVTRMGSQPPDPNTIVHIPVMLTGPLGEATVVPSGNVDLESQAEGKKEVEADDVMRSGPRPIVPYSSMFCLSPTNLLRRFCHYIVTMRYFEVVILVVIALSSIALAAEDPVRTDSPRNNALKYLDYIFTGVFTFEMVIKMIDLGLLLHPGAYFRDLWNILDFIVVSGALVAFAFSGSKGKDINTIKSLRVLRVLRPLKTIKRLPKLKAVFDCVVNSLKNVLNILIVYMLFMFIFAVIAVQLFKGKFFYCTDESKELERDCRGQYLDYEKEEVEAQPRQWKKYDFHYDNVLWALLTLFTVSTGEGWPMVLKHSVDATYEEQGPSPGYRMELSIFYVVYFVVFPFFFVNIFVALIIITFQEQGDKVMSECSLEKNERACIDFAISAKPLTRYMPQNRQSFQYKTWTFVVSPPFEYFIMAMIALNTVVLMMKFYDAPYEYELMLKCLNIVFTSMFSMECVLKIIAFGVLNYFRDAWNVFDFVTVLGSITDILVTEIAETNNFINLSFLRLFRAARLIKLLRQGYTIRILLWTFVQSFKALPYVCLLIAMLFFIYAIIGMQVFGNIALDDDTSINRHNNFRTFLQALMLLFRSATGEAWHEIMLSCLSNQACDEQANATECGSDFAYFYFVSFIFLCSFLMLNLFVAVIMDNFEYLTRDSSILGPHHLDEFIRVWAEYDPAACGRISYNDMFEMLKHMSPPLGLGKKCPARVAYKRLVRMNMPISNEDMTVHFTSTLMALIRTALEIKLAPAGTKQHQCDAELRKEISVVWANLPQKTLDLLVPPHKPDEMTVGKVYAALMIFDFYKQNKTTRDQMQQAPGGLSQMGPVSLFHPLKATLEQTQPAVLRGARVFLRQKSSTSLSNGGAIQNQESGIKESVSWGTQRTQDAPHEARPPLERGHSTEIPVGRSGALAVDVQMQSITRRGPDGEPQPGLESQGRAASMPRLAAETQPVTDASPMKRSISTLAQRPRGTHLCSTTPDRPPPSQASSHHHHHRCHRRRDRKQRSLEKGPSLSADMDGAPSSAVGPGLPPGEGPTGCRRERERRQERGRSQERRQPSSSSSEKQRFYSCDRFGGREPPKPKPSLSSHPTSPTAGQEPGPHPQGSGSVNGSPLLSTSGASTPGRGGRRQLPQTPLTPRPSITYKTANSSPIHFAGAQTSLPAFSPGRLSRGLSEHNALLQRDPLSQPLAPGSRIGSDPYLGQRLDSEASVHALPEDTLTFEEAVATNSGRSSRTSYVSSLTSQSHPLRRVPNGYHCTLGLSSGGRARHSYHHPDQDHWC
T3 sequence (Q02410 whole entry): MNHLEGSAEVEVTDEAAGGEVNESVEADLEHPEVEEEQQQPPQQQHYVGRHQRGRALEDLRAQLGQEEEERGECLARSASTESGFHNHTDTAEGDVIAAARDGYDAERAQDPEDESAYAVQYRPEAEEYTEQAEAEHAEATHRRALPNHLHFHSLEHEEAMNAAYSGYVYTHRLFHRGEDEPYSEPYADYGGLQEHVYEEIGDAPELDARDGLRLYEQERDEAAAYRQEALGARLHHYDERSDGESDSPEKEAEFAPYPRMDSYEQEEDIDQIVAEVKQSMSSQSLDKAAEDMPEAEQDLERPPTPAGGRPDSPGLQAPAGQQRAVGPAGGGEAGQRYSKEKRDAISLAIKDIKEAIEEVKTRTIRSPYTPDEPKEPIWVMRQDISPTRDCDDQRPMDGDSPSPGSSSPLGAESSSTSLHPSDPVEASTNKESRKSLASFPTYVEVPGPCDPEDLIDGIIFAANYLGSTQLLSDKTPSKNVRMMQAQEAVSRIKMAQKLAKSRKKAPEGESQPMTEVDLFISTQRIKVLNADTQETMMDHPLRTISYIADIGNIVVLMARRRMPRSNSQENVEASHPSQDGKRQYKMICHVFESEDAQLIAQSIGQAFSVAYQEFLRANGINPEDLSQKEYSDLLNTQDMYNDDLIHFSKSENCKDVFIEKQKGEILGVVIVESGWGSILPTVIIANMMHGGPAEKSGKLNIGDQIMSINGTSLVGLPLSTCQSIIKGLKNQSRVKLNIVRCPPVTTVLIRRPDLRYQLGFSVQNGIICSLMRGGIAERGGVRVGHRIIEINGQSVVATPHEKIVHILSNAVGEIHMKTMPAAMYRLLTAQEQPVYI
T2 sequence (Q9UBE0 whole entry): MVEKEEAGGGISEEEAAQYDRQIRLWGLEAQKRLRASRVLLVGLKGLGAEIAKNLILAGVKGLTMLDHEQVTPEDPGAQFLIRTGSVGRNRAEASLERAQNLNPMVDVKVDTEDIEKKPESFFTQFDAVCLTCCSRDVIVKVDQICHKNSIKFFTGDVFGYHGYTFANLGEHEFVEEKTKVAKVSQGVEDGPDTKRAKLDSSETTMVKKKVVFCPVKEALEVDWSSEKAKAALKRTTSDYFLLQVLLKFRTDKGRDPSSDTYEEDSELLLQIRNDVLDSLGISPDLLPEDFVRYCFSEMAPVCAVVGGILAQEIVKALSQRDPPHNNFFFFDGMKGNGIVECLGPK
T2 sequence (Q9UBT2 whole entry): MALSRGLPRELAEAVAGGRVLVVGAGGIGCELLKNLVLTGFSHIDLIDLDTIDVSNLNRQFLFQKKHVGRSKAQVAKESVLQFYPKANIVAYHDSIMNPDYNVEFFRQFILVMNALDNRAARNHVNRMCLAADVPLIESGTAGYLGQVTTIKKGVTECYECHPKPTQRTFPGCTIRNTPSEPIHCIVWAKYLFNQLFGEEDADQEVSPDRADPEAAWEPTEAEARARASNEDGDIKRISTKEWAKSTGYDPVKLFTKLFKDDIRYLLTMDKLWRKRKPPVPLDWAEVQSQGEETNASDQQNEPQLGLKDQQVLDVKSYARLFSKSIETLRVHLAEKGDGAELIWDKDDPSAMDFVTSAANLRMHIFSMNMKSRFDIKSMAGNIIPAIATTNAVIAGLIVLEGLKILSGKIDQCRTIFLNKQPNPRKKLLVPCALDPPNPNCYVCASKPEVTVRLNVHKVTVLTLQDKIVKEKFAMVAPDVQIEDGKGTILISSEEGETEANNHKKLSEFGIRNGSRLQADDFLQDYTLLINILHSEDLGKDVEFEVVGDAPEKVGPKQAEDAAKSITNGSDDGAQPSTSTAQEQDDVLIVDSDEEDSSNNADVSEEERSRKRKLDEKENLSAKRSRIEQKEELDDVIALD
Chain of Large T antigen (P03070 whole entry): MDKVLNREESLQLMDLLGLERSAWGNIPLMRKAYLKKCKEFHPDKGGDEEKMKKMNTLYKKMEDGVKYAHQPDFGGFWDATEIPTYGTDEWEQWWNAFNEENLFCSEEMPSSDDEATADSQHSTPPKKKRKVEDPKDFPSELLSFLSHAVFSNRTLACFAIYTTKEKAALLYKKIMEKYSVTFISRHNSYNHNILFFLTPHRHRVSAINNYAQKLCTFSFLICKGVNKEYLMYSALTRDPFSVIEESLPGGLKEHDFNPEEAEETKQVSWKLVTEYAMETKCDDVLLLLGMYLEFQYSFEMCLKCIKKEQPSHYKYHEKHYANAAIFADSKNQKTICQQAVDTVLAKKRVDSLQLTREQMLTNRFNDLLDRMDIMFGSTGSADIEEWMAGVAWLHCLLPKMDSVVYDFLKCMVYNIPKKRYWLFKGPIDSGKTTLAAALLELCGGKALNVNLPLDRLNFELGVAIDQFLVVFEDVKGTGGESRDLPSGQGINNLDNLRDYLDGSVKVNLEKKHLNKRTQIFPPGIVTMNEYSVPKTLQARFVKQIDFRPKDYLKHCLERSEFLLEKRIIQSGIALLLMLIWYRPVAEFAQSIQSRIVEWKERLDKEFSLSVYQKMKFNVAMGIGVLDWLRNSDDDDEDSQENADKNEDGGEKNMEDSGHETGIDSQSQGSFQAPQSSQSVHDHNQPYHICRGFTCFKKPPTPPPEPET

In the case of `Cc1ccc(-c2ccc(=O)n(Cc3cc(C)ccc3C)n2)cc1`, the IC50 [1] is reported as > 47.1 µM (inactive) and the EC50 [2] is reported as > 53 µM (inactive).

For `COc1ccc(NC2CCCN(C(=O)c3ccc(OC)cc3OC)C2)cc1` (stereo not given), the IC50 (Large T antigen) was 82.4 µM (active).

For `O=C(c1ccco1)n1nc(-c2cccnc2)nc1NCc1ccco1`, the IC50 (Prothrombin) was 0.134 µM (active).

In the case of `O=C(Nc1ccc2oc(-c3cccc4ccccc34)nc2c1)c1nnc[nH]1`, the IC50 (SUMO-activating enzyme [3]) is reported as 3.45 µM (active), the IC50 [4] is reported as 2.92 µM (active) and the IC50 (SUMO-activating enzyme [5]) is reported as 11.8 µM (active). For the same molecule, the IC50 [6] was > 50 µM (inactive).

With `Cc1ccc(C)c(SCC(=O)OCC(=O)Nc2ccc(S(=O)(=O)N3CCOCC3)cc2)c1` the IC50 (Prothrombin) was 5.72 µM (active).

With `O=C1C(NS(=O)(=O)c2ccccc2)=C(N2CCN(c3ccc(F)cc3)CC2)C(=O)c2ccccc21` the IC50 (Nonstructural protein 1) was 18.1 µM (active).

For `CC(=O)N1CCN(c2ccc(NCc3ccc(-c4ccc(Br)cc4)o3)cc2)CC1`, the IC50 (Nonstructural protein 1) was 41.1 µM (active).

With `S=P1(N2CCCCC2)Oc2ccc3ccccc3c2-c2c(ccc3ccccc23)O1` the GI50 (P388/ADR) was > 100 µM (inactive), the GI50 (SN12K1) was > 61.8 µM (inactive) and the GI50 (P388) was 48.4 µM (inactive).

With `C(=C/c1nc2ccccc2o1)/c1ccc2c(c1)OCO2` the GI50 (P388/ADR) was 3.99 µM (inactive), the GI50 (SN12K1) was 5.62 µM (inactive) and the GI50 (P388) was 3.52 µM (inactive).

With `COc1ccc(OCC(C)(C)O)cc1` the GI50 (P388/ADR) was 1.31 µM (inactive), the GI50 (SN12K1) was > 100 µM (inactive) and the GI50 (P388) was 38.2 µM (inactive).

In the case of `O=S1(=O)CS(=O)(=O)OCCO1`, the GI50 (P388/ADR) is reported as 7.36 µM (inactive), the GI50 (SN12K1) is reported as 28.6 µM (inactive) and the GI50 (P388) is reported as 10.8 µM (inactive).

In the case of `Cc1ccc(N2Cc3c(ccc4ccccc34)OP2(=O)Oc2ccc(Cl)c(C)c2)cc1` (stereo not given), the GI50 (P388/ADR) is reported as 7.45 µM (inactive), the GI50 (SN12K1) is reported as > 77.8 µM (inactive) and the GI50 (P388) is reported as 4.75 µM (inactive).

In the case of `CCOC(=O)c1sc(N/N=C/c2ccccc2)nc1C`, the IC50 [7] is reported as 40.4 µM (active).

For `COc1ccc(Cc2nnc(N/N=C/c3ccc(O)cc3)nc2O)cc1OC`, the IC50 (Nonstructural protein 1) was 1.19 µM (active), the AC50 (HEK293) was 4.42 µM (active) and the AC50 (INS1) was 0.946 µM (active).

In the case of `COc1cc(/C=N/NC(=O)c2ccc3c(c2)OCCO3)cc(Cl)c1O`, the IC50 (Large T antigen) is reported as 22.7 µM (active).

In the case of `COc1ccc2c3c(n(C)c2c1)[C@@H](CO)N(C(=O)c1ccccc1)CC31CCN(C(=O)c2ccccc2)CC1`, the AC50 [8] is reported as 2.28 µM (active), the AC50 [9] is reported as 2.56 µM (active) and the AC50 [10] is reported as 1.04 µM (active). For the same molecule, the AC50 [11] was 1.55 µM (active).
